Tests used:
Test in all cases: Test E pre-/postemergence plant response
Type in all cases: in vivo
Settings in all cases: scale 0 to 100
[1] = tested on: Virginia (V.) dayflower (Commelina virginica)
Summary of the method: (§1)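 Scores are visual estimates of control on a 0 to 100 scale, made against untreated plants 14 to 21 days after treatment in the greenhouse. Application was preemergence to sown seeds or postemergence to 2–18 cm plants (1- to 4-leaf stage), using a surfactant-containing non-phytotoxic solvent formulation.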

[2] = tested on: common chickweed (Stellaria media)
Summary of the method: as §1

[3] = tested on: common sowthistle (Sonchus oleraceous)
Summary of the method: as §1

CCOC(=O)Oc1cnn(C)c(=O)c1-n1nc(-c2ccc(Cl)cc2)cc1C [Compound 53]
0: Plant response rating, Dayflower, V. ([1]; 16 g ai/ha, Preemergence) | Plant response rating, Dayflower, V. ([1]; 31 g ai/ha, Preemergence) | Plant response rating, Dayflower, V. ([1]; 62 g ai/ha, Preemergence) | Plant response rating, Dayflower, V. ([1]; Postemergence, 8 g ai/ha) | Plant response rating, Dayflower, V. ([1]; Postemergence, 16 g ai/ha) | Plant response rating, Dayflower, V. ([1]; Postemergence, 31 g ai/ha) | Plant response rating, Dayflower, V. ([1]; Postemergence, 62 g ai/ha) | Plant response rating, Chickweed ([2]; 62 g ai/ha, Preemergence) | Plant response rating, Sowthistle ([3]; 16 g ai/ha, Preemergence) | Plant response rating, Sowthistle ([3]; 31 g ai/ha, Preemergence) | Plant response rating, Sowthistle ([3]; 62 g ai/ha, Preemergence) | Plant response rating, Sowthistle ([3]; Postemergence, 8 g ai/ha) | Plant response rating, Sowthistle ([3]; Postemergence, 16 g ai/ha) | Plant response rating, Sowthistle ([3]; Postemergence, 31 g ai/ha) | Plant response rating, Sowthistle ([3]; Postemergence, 62 g ai/ha)

CCc1cc(-c2ccc(C(F)(F)F)cc2)nn1-c1c(OC(=O)OC(C)C)cnn(C)c1=O [Compound 12]
0: Plant response rating, Dayflower, V. ([1]; 4 g ai/ha, Postemergence) | Plant response rating, Dayflower, V. ([1]; 8 g ai/ha, Preemergence) | Plant response rating, Dayflower, V. ([1]; 31 g ai/ha, Preemergence) | Plant response rating, Dayflower, V. ([1]; Postemergence, 8 g ai/ha) | Plant response rating, Dayflower, V. ([1]; Postemergence, 31 g ai/ha) | Plant response rating, Dayflower, V. ([1]; Preemergence, 4 g ai/ha) | Plant response rating, Chickweed ([2]; 4 g ai/ha, Postemergence) | Plant response rating, Chickweed ([2]; Postemergence, 8 g ai/ha) | Plant response rating, Chickweed ([2]; Postemergence, 31 g ai/ha) | Plant response rating, Sowthistle ([3]; 4 g ai/ha, Postemergence) | Plant response rating, Sowthistle ([3]; Postemergence, 8 g ai/ha) | Plant response rating, Sowthistle ([3]; Postemergence, 31 g ai/ha) | Plant response rating, Sowthistle ([3]; Preemergence, 4 g ai/ha)

Cc1cc(-c2ccc(Cl)cc2)nn1-c1c(OC(=O)c2cccc(Cl)c2)cnn(C)c1=O [Compound 32]
0: Plant response rating, Dayflower, V. ([1]; Postemergence, 8 g ai/ha) | Plant response rating, Dayflower, V. ([1]; Postemergence, 16 g ai/ha) | Plant response rating, Dayflower, V. ([1]; Postemergence, 31 g ai/ha) | Plant response rating, Dayflower, V. ([1]; Postemergence, 62 g ai/ha) | Plant response rating, Sowthistle ([3]; Postemergence, 8 g ai/ha) | Plant response rating, Sowthistle ([3]; Postemergence, 16 g ai/ha) | Plant response rating, Sowthistle ([3]; Postemergence, 31 g ai/ha) | Plant response rating, Sowthistle ([3]; Postemergence, 62 g ai/ha)

Cc1cc(-c2ccc(Cl)cc2)nn1-c1c(OS(=O)(=O)c2ccccc2)cnn(C)c1=O [Compound 35]
0: Plant response rating, Chickweed ([2]; Postemergence, 8 g ai/ha) | Plant response rating, Chickweed ([2]; Postemergence, 16 g ai/ha) | Plant response rating, Chickweed ([2]; Postemergence, 31 g ai/ha)
